The values below come from patent US9920136B2, “Posaconazole immunoassays” (ARK Diagnostics, Inc., priority 2013, dated 2018).

Data set [1] has as its system Ab15421 (rabbit polyclonal antibody to posaconazole). Description: Specificity of the immunoassay: cross-reactivity to antifungal triazoles. Format: binding. The following applies: Ab15421 with POS-IV G6PDH; for Cross-reaction of Ab15421 with other azole antifungals (in words): human serum samples, 10 μg/mL; for Cross-reactivity (%): triazole 20 μg/ml added to Posaconazole 10 μg/ml vs Posaconazole 10 μg/ml control, human serum. The source says: Antibodies obtained using any of the disclosed techniques are screened or purified not only for their ability to react with posaconazole, but for a low cross-reactivity with potential interfering substances. “Cross-reactivity” may be determined in a quantitative immunoassay by establishing a standard curve using known dilutions of the target analyte, posaconazole. The standard curve is then used to calculate the apparent concentration of the interfering substance present in various known amounts in samples assayed under similar condition. The cross-reactivity can be calculated as the apparent concentration divided by the actual concentration multiplied by 100. A certain immunoassay for determining cross-reactivity is a homogeneous enzyme immunoassay using a wild type G6PDH as described in U.S. Pat. No. 3,817,837 or mutant G6PDH engineered to contain a cysteine per subunit as described in U.S. Pat. Nos. 6,033,890, 6,090,567 and 6,455,288. Furthermore, the cross-reactivity can be determined in the same type of immunoassay in which the antibody will ultimately be used.
To human serum negative for antifungal azoles was added posaconazole dissolved in methanol to achieve a concentration of 10 μg/mL of posaconazole. […]
The assay was calibrated as described in Example 8 using Enzyme Conjugate Reagent NB051:154 containing conjugate POS-IV G6PDH and Antibody Reagent NB051:154 containing Ab15421. The testing was performed on the HITACHI 917. The samples were quantified from the calibration curve generated.

For data set [2] the following is noted: cited from earlier work.
Data set [3] deals with Ab15421 (rabbit polyclonal antibody to posaconazole). In words: Homogeneous enzyme immunoassay calibration curve (POS-IV G6PDH conjugate and Ab15421) in pooled human serum. Format: binding. The note with it: HITACHI 917, 340 nm. As to the method: Ab15421 was used to measure enzyme activity, generate a calibration curve, and evaluate assay precision, accuracy and specificity. Ab15421 was added into the antibody diluent to prepare the antibody reagent. The antibody reagent included Ab15421 as prepared above, buffer, stabilizers, preservatives, and the substrates for the enzyme conjugate nicotinamide adenine dinucleotide (NAD^+) and glucose-6-phosphate. Enzyme conjugate POS-IV G6PDH was added into the conjugate reagent to prepare the enzyme conjugate reagent. The enzyme conjugate reagent included the conjugate, buffer, stabilizers and preservatives. Enzyme conjugate POS-IV G6PDH was used with Ab15421 in examples below.
Ab15421 was added into the antibody diluent to prepare the antibody reagent. The antibody reagent included Ab15421 as prepared above, buffer, stabilizers, preservatives, and the substrates for the enzyme conjugate NAD^+ and glucose 6 phosphate. Enzyme conjugate POS-IV G6PDH or a label protein including alkaline phosphatase, β-galactosidase and horse radish peroxidase was added into the conjugate reagent to prepare the enzyme conjugate reagent. The enzyme conjugate reagent included the conjugate, buffer, stabilizers and preservatives.
The posaconazole antibodies and enzyme conjugates were used in a homogeneous assay format to detect posaconazole samples. Posaconazole containing sample was incubated with antibody reagent followed by the addition of the enzyme conjugate reagent. The enzyme conjugate activity decreased upon binding to Ab15421. The enzyme conjugate, which was not bound to Ab15421, catalyzed the oxidation of glucose 6-phosphate (G6P). The oxidation of G6P was coupled with the reduction of NAD^+ to NADH, which was measured at 340 nm. The change in the absorbance at 340 nm was measured spectrophotometrically. The posaconazole concentration in a sample was measured in terms of G6PDH activity. The increase in the rate at 340 nm was due to the formation of NADH and was proportional to the enzyme conjugate activity. An assay curve was generated using posaconazole added into serum negative for posaconazole. The assay rate increased with increasing the concentration of free drug in the sample.
Posaconazole was dissolved in methanol to give a stock solution of 1000 μg/mL. Pooled human serum was aliquoted in 10 mL portions. Posaconazole stock solution was added to the aliquots of human serum in preparing a series of known concentrations of posaconazole calibrators ranging from 0 to 16 μg/mL. The assay was performed using Enzyme Conjugate Reagent NB051:154 containing conjugate POS-IV G6PDH and Antibody Reagent NB051:154 containing Ab15421. Calibration curves were generated on the HITACHI 917 automated clinical chemistry analyzer, as described in Example 7 by measuring each level in duplicate.

As for `OC(Cn1cncn1)(Cn1cncn1)c1ccc(F)cc1F` [Fluconazole], in data set [1], the “Cross-reaction of Ab15421 with other azole antifungals (in words)” value is “did not crossreact” and the “Cross-reactivity (%)” value is less than 0.01%.
For the molecule `C[C@@H](c1ncncc1F)[C@](O)(Cn1cncn1)c1ccc(F)cc1F` [Voriconazole], in data set [1], the “Cross-reaction of Ab15421 with other azole antifungals (in words)” value is “did not crossreact” and the “Cross-reactivity (%)” value was less than 0.01%.
`CC[C@@H]([C@H](C)O)n1ncn(-c2ccc(N3CCN(c4ccc(OC[C@@H]5CO[C@@](Cn6cncn6)(c6ccc(F)cc6F)C5)cc4)CC3)cc2)c1=O` [Posaconazole, 4-[4-[4-[4-[[(3R,5R)-5-(2,4-difluorophenyl)tetrahydro-5-(1H 1,2,4-triazol-1-ylmethyl)-3-furanyl]methoxy]phenyl]-1-piperazinyl]phenyl]-2-[(1S,2S)-1-ethyl-2-hydroxypropyl]-2,4-dihydro-3H-1,2,4-triazol-3-one]: the “Increase of bioavailability on coadministration with food” value in data set [2] (coadministration with food) is listed as “up to 4 fold”. Besides, the “Bioavailability (in words)” value in data set [2] (oral, saturable absorption) is “low and highly variable bioavailability”. Also, the “Reaction Rate (mA/min) Average of Duplicates” value in data set [3] (Posaconazole Conc. 1.0 μg/mL in pooled human serum) was 165.7 mA/min; in data set [3] (Posaconazole Conc. 2.0 μg/mL in pooled human serum), 235.5 mA/min; in data set [3] (Posaconazole Conc. 4.0 μg/mL in pooled human serum), 304.7 mA/min; in data set [3] (Posaconazole Conc. 8.0 μg/mL in pooled human serum), 371.7 mA/min; in data set [3] (Posaconazole Conc. 16.0 μg/mL in pooled human serum), 409.4 mA/min.
